# US9572343B2, “Active compound combinations” (BAYER CROPSCIENCE AG, priority 2012, dated 2017)
# Like-named read-outs stand apart in the source and are kept apart here.
# Tests used:
# Assay type in all cases: in vivo
# Phakopsora pachyrhizi = experiment: Phakopsora test (soybeans)/preventive; settings: for pest or weed control at 1 ppm: Table D2, application rate 1 ppm a.i.
# Leptosphaeria nodorum = Leptosphaeria nodorum test (wheat)/preventive; settings: Table C1
# Description: (§1) Solvent: 49 parts by weight of N,N-dimethylacetamide Emulsifier: 1 part by weight of alkylaryl polyglycol ether To produce a suitable preparation of active compound, 1 part by weight of active compound or active compound combination is mixed with the stated amounts of solvent and emulsifier, and the concentrate is diluted with water to the desired concentration. To test for preventive activity, young plants are sprayed with the preparation of active compound or active compound combination at the stated rate of application. After the spray coating has been dried, the plants are sprayed with a spore suspension of Leptosphaeria nodorum.
# Sphaerotheca fuliginea = experiment: Sphaerotheca test (cucumbers)/preventive; settings: Table G1
# Description: (§2) Solvent: 24.5 parts by weight of acetone • 24.5 parts by weight of dimethylacetamide Emulsifier: 1 part by weight of alkylaryl polyglycol ether To produce a suitable preparation of active compound, 1 part by weight of active compound is mixed with the stated amounts of solvent and emulsifier, and the concentrate is diluted with water to the desired concentration. To test for preventive activity, young plants are sprayed with the preparation of active compound at the stated rate of application. After the spray coating has dried on, the plants are inoculated with an aqueous spore suspension of Sphaerotheca fuliginea.
# Septoria tritici = experiment: Septoria tritici-test (wheat)/preventive; settings: Table F1
# Description: as §1, with “Septoria tritici.” for “Leptosphaeria nodorum.”
# Uromyces appendiculatus = experiment: Uromyces test (beans)/preventive; settings: for pest or weed control at 0.5 ppm: application rate 0.5 ppm a.i.; for pest or weed control at 2 ppm: application rate 2 ppm a.i.
# Description: (§3) Solvent: 24.5 parts by weight of acetone • 24.5 parts by weight of dimethylacetamide
# (§4) Emulsifier: 1 part by weight of alkylaryl polyglycol ether
# (§5) To produce a suitable preparation of active compound, 1 part by weight of active compound is mixed with the stated amounts of solvent and emulsifier, and the concentrate is diluted with water to the desired concentration.
# (§6) To test for preventive activity, young plants are sprayed with the preparation of active compound at the stated rate of application. After the spray coating has dried on, the plants are inoculated with an aqueous spore suspension of the causal agent of bean rust (Uromyces appendiculatus) and then remain for 1 day in an incubation cabinet at approximately 20° C. and a relative atmospheric humidity of 100%.
# The plants are then placed in a greenhouse at approximately 21° C. and a relative atmospheric humidity of approximately 90%.
# The test is evaluated 10 days after the inoculation. 0% means an efficacy which corresponds to that of the untreated control, while an efficacy of 100% means that no disease is observed.
# [1] = system: Blumeria graminis f.sp. hordei; experiment: Blumeria test (barley)/preventive; settings: Table B1
# Description: Solvent: 49 parts by weight of N,N-dimethylacetamide Emulsifier: 1 part by weight of alkylaryl polyglycol ether To produce a suitable preparation of active compound, 1 part by weight of active compound or active compound combination is mixed with the stated amounts of solvent and emulsifier, and the concentrate is diluted with water to the desired concentration. To test for preventive activity, young plants are sprayed with the preparation of active compound or active compound combination at the stated rate of application. After the spray coating has been dried, the plants are dusted with spores of Blumeria graminis f.sp. hordei.
# Pyrenophora teres = experiment: Pyrenophora teres-test (barley)/preventive; settings: Table E1
# Description: Solvent: 49 parts by weight of N,N-dimethylacetamide
# as §4
# To produce a suitable preparation of active compound, 1 part by weight of active compound or active compound combination is mixed with the stated amounts of solvent and emulsifier, and the concentrate is diluted with water to the desired concentration.
# To test for preventive activity, young plants are sprayed with the preparation of active compound or active compound combination at the stated rate of application.
# After the spray coating has been dried, the plants are sprayed with a spore suspension of Pyrenophora teres. The plants remain for 48 hours in an incubation cabinet at approximately 20° C. and a relative atmospheric humidity of approximately 100%.
# The plants are placed in the greenhouse at a temperature of approximately 20° C. and a relative atmospheric humidity of approximately 80%.
# The test is evaluated 8 days after the inoculation. 0% means an efficacy which corresponds to that of the untreated control, while an efficacy of 100% means that no disease is observed.
# Alternaria solani = experiment: Alternaria test (tomatoes)/preventive
# Description: as §3, §4, §5
# as §6, with “Alternaria solani. The plants are” for “the causal agent of bean rust (Uromyces appendiculatus) and”, “placed” for “remain for 1 day”
# The test is evaluated 3 days after the inoculation. 0% means an efficacy which corresponds to that of the untreated control while an efficacy of 100% means that no disease is observed.
# Venturia inaequalis = experiment: Venturia test (apples)/preventive; settings: Table I1
# Description: as §2, with “application.” for “application. After the spray coating has dried on, the plants are inoculated with an aqueous spore suspension of Sphaerotheca fuliginea.”
# [2] = Phakopsora pachyrhizi, 168 h, Table D1, application rate 0.5 ppm a.i., read-out: Efficacy in % found
# [3] = Uromyces appendiculatus, 240 h, Table H2, read-out: Efficacy in % found
# [4] = Table D1, application rate 0.5 ppm a.i.
# [5] = Table A1, application rate 0.5 ppm a.i.
# [6] = Table A2, application rate 5 ppm a.i.
# [7] = Phakopsora pachyrhizi, 168 h, read-out: Efficacy in % found
# [8] = Table H1, application rate 0.25 ppm a.i.
# [9] = Table A3, application rate 20 ppm a.i.
# [10] = Table H3, application rate 20 ppm a.i.
molecule,measurement,setting,value
"Fc1ccc([C@]2(Cn3cncn3)O[C@H]2c2ccccc2Cl)cc1 (racemic) [1.12, epoxiconazole]",pest or weed control at 0.5 ppm,Phakopsora pachyrhizi; [2],23%
same,Efficacy in % found,Leptosphaeria nodorum; application rate 40 ppm a.i.,60%
same,Efficacy in % found,Sphaerotheca fuliginea; application rate 1 ppm a.i.,0%
same,Efficacy in % found,Septoria tritici; application rate 40 ppm a.i.,14%
same,pest or weed control at 0.5 ppm,Uromyces appendiculatus; [3],30%
"Cn1cc(C(=O)Nc2cccc3c2[C@@H]2CC[C@H]3C2=C(Cl)Cl)c(C(F)F)n1 (racemic) [2.29, benzovindiflupyr]",Efficacy in % found,[1]; application rate 40 ppm a.i.,0%
same,Efficacy in % found,Phakopsora pachyrhizi; [4],8%
same,Efficacy in % found,Pyrenophora teres; application rate 40 ppm a.i.,0%
same,Efficacy in % found,Alternaria solani; [5],40%
"CC(C1CC1)C(O)(Cn1cncn1)c1ccc(Cl)cc1 (stereo not shown) [1.5, cyproconazole]",Efficacy in % found,Sphaerotheca fuliginea; application rate 1.25 ppm a.i.,52%
same,Efficacy in % found,Septoria tritici; application rate 80 ppm a.i.,0%
same,Efficacy in % found,Alternaria solani; [6],23%
same,pest or weed control at 0.5 ppm,Uromyces appendiculatus; [3],50%
"CC1(C)CCC(Cc2ccc(Cl)cc2)C1(O)Cn1cncn1 (stereo not shown) [1.30, metconazole]",Efficacy in % found,Leptosphaeria nodorum; application rate 40 ppm a.i.,30%
same,pest or weed control at 2 ppm,Uromyces appendiculatus; [3],30%
"OC(Cc1ccccc1Cl)(Cn1nc[nH]c1=S)C1(Cl)CC1 (stereo not shown) [1.41, prothioconazole]",pest or weed control at 1 ppm,Phakopsora pachyrhizi; [7],60%
same,Efficacy in % found,Leptosphaeria nodorum; application rate 80 ppm a.i.,30%
same,pest or weed control at 2 ppm,Uromyces appendiculatus; [3],30%
"CC(C)(C)C(O)(CCc1ccc(Cl)cc1)Cn1cncn1 (stereo not shown) [1.47, tebuconazole]",pest or weed control at 1 ppm,Phakopsora pachyrhizi; [7],50%
same,Efficacy in % found,Septoria tritici; application rate 80 ppm a.i.,14%
"Cn1cc(C(=O)Nc2ccc(F)cc2-c2ccc(Cl)c(Cl)c2)c(C(F)F)n1 [2.1, bixafen]",Efficacy in % found,Venturia inaequalis; application rate 1 ppm a.i.,36%
same,Efficacy in % found,Phakopsora pachyrhizi; [4],0%
same,Efficacy in % found,Pyrenophora teres; application rate 80 ppm a.i.,86%
same,Efficacy in % found,Alternaria solani; [5],43%
same,Efficacy in % found,Uromyces appendiculatus; [8],30%
"O=C(NCCc1ncc(C(F)(F)F)cc1Cl)c1ccccc1C(F)(F)F [2.6, fluopyram]",Efficacy in % found,[1]; application rate 40 ppm a.i.,0%
same,pest or weed control at 2 ppm,"Phakopsora pachyrhizi; Phakopsora pachyrhizi, 168 h, Table D1, application rate 2 ppm a.i., read-out: Efficacy in % found",0%
same,Efficacy in % found,Pyrenophora teres; application rate 40 ppm a.i.,57%
same,Efficacy in % found,"Alternaria solani; Table A1, application rate 2 ppm a.i.",34%
same,pest or weed control at 1 ppm,"Uromyces appendiculatus; Uromyces appendiculatus, 240 h, Table H1, application rate 1 ppm a.i., read-out: Efficacy in % found",15%
"Cn1cc(C(=O)Nc2ccccc2-c2cc(F)c(F)c(F)c2)c(C(F)F)n1 [2.8, fluxapyroxad]",Efficacy in % found,[1]; application rate 40 ppm a.i.,30%
same,Efficacy in % found,Phakopsora pachyrhizi; [4],0%
same,Efficacy in % found,Pyrenophora teres; application rate 80 ppm a.i.,57%
same,Efficacy in % found,Alternaria solani; [5],58%
same,Efficacy in % found,Uromyces appendiculatus; [8],0%
"CC(C)CC(C)c1sccc1NC(=O)c1cn(C)nc1C(F)(F)F (stereo not shown) [2.21, penthiopyrad]",Efficacy in % found,[1]; application rate 80 ppm a.i.,20%
same,pest or weed control at 0.5 ppm,Phakopsora pachyrhizi; [2],0%
same,Efficacy in % found,Alternaria solani; [5],27%
same,pest or weed control at 0.25 ppm,"Uromyces appendiculatus; Uromyces appendiculatus, 240 h, Table H1, application rate 0.25 ppm a.i., read-out: Efficacy in % found",30%
"CC1CC(C)(C)c2cccc(NC(=O)c3cn(C)nc3C(F)F)c21 (stereo not shown) [2.32, 3-(difluoromethyl)-1-methyl-N-(1,1,3-trimethyl-2,3-dihydro-1H-inden-4-yl)-1H-pyrazole-4-carboxamide]",Efficacy in % found,[1]; application rate 80 ppm a.i.,20%
same,Efficacy in % found,Venturia inaequalis; application rate 1 ppm a.i.,39%
same,pest or weed control at 0.5 ppm,Phakopsora pachyrhizi; [7],15%
same,Efficacy in % found,Pyrenophora teres; application rate 80 ppm a.i.,0%
same,Efficacy in % found,Alternaria solani; [5],18%
same,pest or weed control at 0.25 ppm,"Uromyces appendiculatus; Uromyces appendiculatus, 240 h, read-out: Efficacy in % found",75%
"CO/C=C(/C(=O)OC)c1ccccc1Oc1cc(Oc2ccccc2C#N)ncn1 [3.3, azoxystrobin]",Efficacy in % found,Venturia inaequalis; application rate 0.5 ppm a.i.,88%
same,Efficacy in % found,"Phakopsora pachyrhizi; Table D3, application rate 0.5 ppm a.i.",68%
same,Efficacy in % found,Pyrenophora teres; application rate 20 ppm a.i.,57%
same,Efficacy in % found,Alternaria solani; [6],35%
"CO/N=C(/C1=NOCCO1)c1ccccc1Oc1ncnc(Oc2ccccc2Cl)c1F [3.12, fluoxastrobin]",Efficacy in % found,Venturia inaequalis; application rate 0.5 ppm a.i.,30%
same,Efficacy in % found,Pyrenophora teres; application rate 20 ppm a.i.,16%
same,pest or weed control at 0.5 ppm,Uromyces appendiculatus; [3],65%
"CO/C=C(/C(=O)OC)c1ccccc1COc1cccc(C(F)(F)F)n1 [3.16, picoxystrobin]",Efficacy in % found,[1]; application rate 40 ppm a.i.,50%
same,Efficacy in % found,"Phakopsora pachyrhizi; Table D1, application rate 0.25 ppm a.i.",8%
same,Efficacy in % found,Pyrenophora teres; application rate 40 ppm a.i.,71%
same,Efficacy in % found,"Uromyces appendiculatus; Table H2, application rate 2.5 ppm a.i.",65%
"COC(=O)N(OC)c1ccccc1COc1ccn(-c2ccc(Cl)cc2)n1 [3.17, pyraclostrobin]",Efficacy in % found,Venturia inaequalis; application rate 1 ppm a.i.,23%
same,pest or weed control at 0.25 ppm,"Phakopsora pachyrhizi; Phakopsora pachyrhizi, 168 h, Table D1, application rate 0.25 ppm a.i., read-out: Efficacy in % found",0%
same,Efficacy in % found,Leptosphaeria nodorum; application rate 20 ppm a.i.,50%
same,Efficacy in % found,Septoria tritici; application rate 20 ppm a.i.,0%
same,Efficacy in % found,"Alternaria solani; Table A1, application rate 1 ppm a.i.",28%
"CON=C(C(=O)OC)c1ccccc1CON=C(C)c1cccc(C(F)(F)F)c1 [3.22, trifloxystrobin]",Efficacy in % found,Venturia inaequalis; application rate 0.25 ppm a.i.,66%
same,Efficacy in % found,Leptosphaeria nodorum; application rate 20 ppm a.i.,40%
same,Efficacy in % found,Septoria tritici; application rate 20 ppm a.i.,71%
same,Efficacy in % found,Alternaria solani; [6],45%
"CC(C)c1ccc(Cl)cc1CN(C(=O)c1c(C(F)F)nn(C)c1F)C1CC1 [15.151, N-(5-chloro-2-isopropylbenzyl)-N-cyclopropyl-3-(difluoromethyl)-5-fluoro-1-methyl-1H-pyrazole-4-carboxamide]",Efficacy in % found,[1]; application rate 20 ppm a.i.,20%
same,pest or weed control at 0.5 ppm,Phakopsora pachyrhizi; [2],0%
same,Efficacy in % found,Pyrenophora teres; application rate 20 ppm a.i.,86%
chlorothalonil [5.4],Efficacy in % found,Venturia inaequalis; application rate 20 ppm a.i.,68%
same,Efficacy in % found,Sphaerotheca fuliginea; application rate 20 ppm a.i.,29%
same,Efficacy in % found,Septoria tritici; application rate 160 ppm a.i.,0%
same,Efficacy in % found,Alternaria solani; [9],8%
same,Efficacy in % found,Uromyces appendiculatus; [10],0%
propineb [5.29],Efficacy in % found,Venturia inaequalis; application rate 5 ppm a.i.,14%
same,Efficacy in % found,"Phakopsora pachyrhizi; Table D3, application rate 20 ppm a.i.",0%
same,Efficacy in % found,Sphaerotheca fuliginea; application rate 20 ppm a.i.,71%
same,Efficacy in % found,Septoria tritici; application rate 400 ppm a.i.,29%
same,Efficacy in % found,Alternaria solani; [9],12%
same,Efficacy in % found,Uromyces appendiculatus; [10],56%
